Test results reported in ChEMBL document CHEMBL1152558, “A critical electrostatic interaction mediates inhibitor recognition by human asparagine synthetase” (Bioorg Med Chem, 2009).
The source made the active and inactive calls. The calls are words filed in the database; no cut-off is given here.

Experiments:
[1] = biological target: T1, Asparagine synthetase [glutamine-hydrolyzing] (Homo sapiens) (UniProt P08243); assay: Inhibition of human recombinant ASNS expressed in Sf9 insect cells assessed as inorganic phosphate production in glutamine-dependent asparagine synthesis using continuous assay
T1 sequence (whole entry): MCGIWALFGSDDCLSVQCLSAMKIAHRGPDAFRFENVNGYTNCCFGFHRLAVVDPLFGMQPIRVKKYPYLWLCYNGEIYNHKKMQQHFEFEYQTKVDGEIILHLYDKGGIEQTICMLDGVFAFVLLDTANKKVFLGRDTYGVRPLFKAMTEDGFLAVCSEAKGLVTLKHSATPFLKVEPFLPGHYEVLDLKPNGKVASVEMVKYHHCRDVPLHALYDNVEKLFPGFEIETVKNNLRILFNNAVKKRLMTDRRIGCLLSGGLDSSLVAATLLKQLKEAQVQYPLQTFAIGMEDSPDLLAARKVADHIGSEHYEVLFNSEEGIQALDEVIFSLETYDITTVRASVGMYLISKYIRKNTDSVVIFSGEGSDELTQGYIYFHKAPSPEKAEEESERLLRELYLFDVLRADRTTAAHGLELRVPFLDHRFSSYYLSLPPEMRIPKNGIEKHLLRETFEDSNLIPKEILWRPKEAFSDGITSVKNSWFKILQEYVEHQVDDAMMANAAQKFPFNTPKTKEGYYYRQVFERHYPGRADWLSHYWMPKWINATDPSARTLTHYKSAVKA

[2] = biological target: T1, Asparagine synthetase [glutamine-hydrolyzing] (Homo sapiens); assay: Inhibition of human recombinant ASNS expressed in Sf9 insect cells assessed as inorganic phosphate production in ammonia-dependent asparagine synthesis using continuous assay
[3] = biological target: T2, Asparagine synthetase [glutamine-hydrolyzing] (Homo sapiens, UniProt P08243); assay: Inhibition of human recombinant ASNS expressed in Sf9 insect cells
T2 sequence (P08243 whole entry): T1 sequence (whole entry)

[4] = biological target: T2, Asparagine synthetase [glutamine-hydrolyzing]; assay: Inhibition of human recombinant ASNS expressed in Sf9 insect cells assessed as overall inhibition constant

Row | Structure (SMILES) | Activity [1] | Activity [2] | Ki [3] | Ki [4]
1 | C[S+]([O-])(CC(N)C(=O)O)=NS(=O)(=O)NC[C@H]1O[C@@H](n2cnc3c(N)ncnc32)[C@H](O)[C@@H]1O (mixture of isomers) | inactive | inactive |  | 
2 | C[S+]([O-])(C[C@H](N)C(=O)O)=NP(=O)(O)OC[C@H]1O[C@@H](n2cnc3c(N)ncnc32)[C@H](O)[C@@H]1O (some centres undefined) |  |  | 20 µM | 10 µM
